The structures appear in SMILES notation. In brackets after ≈: the same amount, converted by molar mass.

Results on one compound are retold here after US20260130905A1, “TOPICAL FORMULATIONS OF DEUCRAVACITINIB” (Bristol-Myers Squibb Company, priority 2021, published 2026).

Holding throughout (assay type): physicochemical
Series [1] in a line: Solubility of deucravacitinib in water.
The nature of series [2]: Solubility of deucravacitinib in different solvents. The text has this:
The solubility of deucravacitinib was examined in various solvents. […] As these solvents can, in some instances, result in skin irritation, they were not included in the development of the formulations described later in the Examples.

Series [3] in a line: Solubility of deucravacitinib in solvent systems. The text has this: The solubility of deucravacitinib was examined in various solvent systems that included water, as water is an essential component in aqueous gels and creams. The example solvent systems in Table 2 were designed for cream formulations. The total percentage of the solvent system was up to 80% of the total % w/w of the composition, with the remaining up to 20% reserved for oil component(s). Water or acidic buffer (an aqueous solution) accounted for 25% w/w of the total composition.

Where [4] appears, read: solvent: N-methyl-2-pyrrolidone (NMP).
Where [5] appears, read: solvent: dimethyl sulfoxide (DMSO).

For `[2H]C([2H])([2H])NC(=O)c1nnc(NC(=O)C2CC2)cc1Nc1cccc(-c2ncn(C)n2)c1OC` [Deucravacitinib, 6-(cyclopropanecarboxamido)-4-((2-methoxy-3-(1-methyl-1H-1,2,4-triazol-3-yl)phenyl)amino)-N-(methyl-d3)pyridazine-3-carboxamide], the solubility in series [1] is about 9 µg/mL (≈ 21.2 µM). In series [1], the solubility in water was about 0.00009 % w/w. In addition, the Deucravacitinib solubility in series [2] (solvent: Caprylic/capric triglyceride) was 0.01 % w/w; in series [2] (solvent: Diethylene glycol monoethyl ether (DEGEE)), 0.62 % w/w; in series [2] (solvent: Diisopropyl adipate), 0.01 % w/w; in series [2] (solvent: Dimethyl isosorbide (DMI)), 0.51 % w/w; in series [2] (solvent: Ethanol) it was 0.07 % w/w; in series [2] (solvent: Isopropanol) it was 0.02 % w/w. The Deucravacitinib solubility was 0.00 % w/w in series [2] (solvent: Isopropyl myristate); 10.09 % w/w in series [2] (setting [4]); 0.01 % w/w in series [2] (solvent: Octyldodecanol); 0.64 % w/w in series [2] (solvent: Polyethylene glycol (PEG) 400); 0.31 % w/w in series [2] (solvent: Polysorbate 80); 0.16 % w/w in series [2] (solvent: Propylene glycol). The Deucravacitinib solubility in series [2] (setting [5]) was found to be 9.49 % w/w; in series [3] (S1: water 25, PEG 400 38, DEGEE 15, benzyl alcohol 2 % w/w) it was 0.51 % w/w; in series [3] (S2: water 25, PEG 400 38, DMI 15, benzyl alcohol 2 % w/w), 0.48 % w/w; in series [3] (S3: water 25, PEG 400 23, DEGEE 15, DMI 15, benzyl alcohol 2 % w/w), 0.72 % w/w; in series [3] (S4: 0.1N hydrochloric acid solution 25, PEG 400 38, DEGEE 15, benzyl alcohol 2 % w/w), 0.77 % w/w; in series [3] (S5: 0.1N hydrochloric acid solution 25, PEG 400 38, DMI 15, benzyl alcohol 2 % w/w), 0.83 % w/w. This compound had a Deucravacitinib solubility in series [3] (S6: 0.1N hydrochloric acid solution 25, PEG 400 23, DEGEE 15, DMI 15, benzyl alcohol 2 % w/w) of 1.33 % w/w. For the same compound, the “solubility (in words)” value in series [2] (setting [4]) is recorded as “high solubility”; in series [2] (setting [5]) it was “high solubility”; in series [3] (three-solvent system S3 (PEG 400, DEGEE, DMI) compared to two-solvent systems S1 and S2) it was “greatest solubility”.
